Experimental data: EPA's ToxRefDB 2

Legend:
[1] = tested on: rat; conditions: Subchronic oral toxicity in rodents, sprague dawley, Water, dose end: 90 day, group: systemic
[2] = tested on: rabbit; conditions: Prenatal developmental toxicity study, new zealand white, Oral, Gavage/Intubation, dose end: 18 GD
[3] = tested on: dog; conditions: Subchronic oral toxicity in nonrodent, beagle, Capsule, dose end: 90 day, group: systemic, systemic / clinical chemistry / alkaline phosphatase (alp/alk) / alkaline phosphatase (alp/alk) + systemic / pathology microscopic / liver…
[4] = tested on: mouse; conditions: Carcinogenicity, cd1, Oral, Feed, dose end: 99 week, group: systemic
[5] = tested on: rat; conditions: Combined chronic toxicity/carcinogenicity, sprague dawley, Oral, Feed, dose end: 2 year, group: systemic
[6] = tested on: rat; conditions: Multigenerational reproductive toxicity study, CRL:CD BR/VAF/PLUS, Oral, Feed, dose end: 2 generation
[7] = tested on: dog; conditions: Chronic toxicity, beagle, Oral, Feed, dose end: 52 week, group: systemic
[8] = tested on: rat; conditions: Subchronic oral toxicity in rodents, other, Feed, dose end: 90 day, group: systemic, systemic / in life observation / food consumption / food consumption
[9] = tested on: rat; conditions: Subchronic oral toxicity in rodents, sprague dawley, Feed, dose end: 13 week
[10] = tested on: rat; conditions: Prenatal developmental toxicity study, sprague dawley, Inhalation, Whole-Body, dose end: 15 GD, group: maternal
[11] = tested on: rat; conditions: Multigenerational reproductive toxicity study, sprague dawley, Inhalation, Whole-Body, dose end: 2 generation
[12] = tested on: rat; conditions: Prenatal developmental toxicity study, sprague dawley, Oral, Gavage/Intubation, dose end: 15 GD
[13] = tested on: rat; conditions: Prenatal developmental toxicity study; sprague dawley; Oral; Gavage/Intubation; dose end: 15 GD; group: developmental; developmental / developmental malformation / bone / absent
[14] = tested on: rat; conditions: Combined chronic toxicity/carcinogenicity, wistar, Oral, Feed, dose end: 2 year, group: systemic
[15] = tested on: mouse; conditions: Carcinogenicity; other; Oral; Feed; dose end: 21 month; group: systemic; systemic / pathology microscopic / liver / hypertrophy
[16] = tested on: rabbit; conditions: Prenatal developmental toxicity study, other, Oral, Gavage/Intubation, dose end: 18 GD
[17] = tested on: rat; conditions: Multigenerational reproductive toxicity study, other, Oral, Feed, dose end: 2 generation
[18] = tested on: mouse; conditions: Combined chronic toxicity/carcinogenicity, Oral, Feed, dose end: 2 year, group: systemic
[19] = tested on: rat; conditions: Prenatal developmental toxicity study, sprague dawley, Oral, Gavage/Intubation, dose end: 15 GD; remark: listed apart in the source
[20] = tested on: dog; conditions: Chronic toxicity, beagle, Oral, Feed, dose end: 24 month, group: systemic
[21] = systemic / clinical chemistry / cholesterol / cholesterol + systemic / in life observation / mortality / mortality + systemic / pathology …
[22] = group: developmental, developmental / developmental malformation / bone / delayed ossification + developmental / developmental malformation / bone / full …
[23] = group: maternal, systemic / in life observation / body weight / body weight gain
[24] = group: maternal, systemic / in life observation / body weight / body weight gain + reproductive / reproductive performance / aborted / aborted + reproductive…
[25] = systemic / pathology microscopic / testes / hypertrophy + systemic / pathology microscopic / testes / vacuolization + systemic / pathology …
[26] = systemic / pathology microscopic / adrenal gland / vacuolization + systemic / organ weight / thyroid gland / relative to body weight + …
[27] = group: offspring, developmental / offspring survival late / lactation index / lactation index + developmental / offspring survival late / [other] / [other] + …
[28] = group: parental, systemic / in life observation / body weight / body weight gain + systemic / in life observation / food consumption / food consumption
[29] = group: parental, systemic / in life observation / body weight / body weight gain + systemic / in life observation / food consumption / food consumption + …
[30] = systemic / hematology / heinz body / heinz body + systemic / organ weight / prostate / absolute
[31] = systemic / hematology / heinz body / heinz body + systemic / organ weight / prostate / absolute + systemic / clinical chemistry / alanine …
[32] = group: maternal, reproductive / reproductive performance / estrous cycle / corpora lutea
[33] = group: systemic, systemic / in life observation / body weight / body weight + systemic / in life observation / food consumption / food consumption + systemic…
[34] = group: systemic, systemic / organ weight / liver / nos
[35] = systemic / in life observation / body weight / body weight gain + systemic / organ weight / spleen / absolute + systemic / organ weight / …
[36] = group: offspring, systemic / in life observation / body weight / offspring (pup) weight
[37] = group: parental, systemic / organ weight / epididymis / absolute + systemic / organ weight / epididymis / relative to body weight + systemic / organ weight…
[38] = group: reproductive, reproductive / reproductive performance / fertility / fertility + reproductive / reproductive performance / pregnancy / pregnancy + …
[39] = group: developmental, developmental / developmental malformation / bladder / distended + developmental / developmental malformation / bone / supernumerary
[40] = group: maternal, reproductive / reproductive performance / resorptions / resorptions + systemic / in life observation / body weight / body weight gain
[41] = systemic / pathology microscopic / thyroid gland / adenoma + systemic / in life observation / body weight / body weight + systemic / organ …
[42] = group: developmental, developmental / developmental malformation / bone / incomplete ossification + developmental / developmental malformation / bone / misshapen
[43] = group: developmental, developmental / developmental malformation / bone / incomplete ossification + developmental / developmental malformation / bone / misshapen…
[44] = group: offspring, developmental / offspring survival late / lactation index / lactation index + developmental / offspring survival late / viability index / …
[45] = group: parental, systemic / organ weight / ovary / relative to body weight + systemic / organ weight / ovary / absolute
[46] = group: reproductive, reproductive / reproductive performance / fertility / fertility
[47] = systemic / clinical chemistry / alanine aminotransferase (alt/sgpt) / alanine aminotransferase (alt/sgpt) + systemic / clinical chemistry / …
[48] = systemic / clinical chemistry / urea nitrogen / urea + systemic / clinical chemistry / creatinine / creatinine + systemic / organ weight / …
[49] = group: developmental, developmental / developmental malformation / bone / [other] + developmental / developmental malformation / bone / full supernumerary + …
[50] = group: maternal, systemic / in life observation / clinical signs / motor activity
[51] = group: maternal, systemic / in life observation / clinical signs / motor activity + systemic / in life observation / body weight / body weight gain

Which LOAEL [1, 21] does the source give for `CC(Cl)C(Cl)Cl` (stereo not given) [1,1,2-Trichloropropane] here?
The LOAEL was > 50 mg/kg/day.

What about the NEL [1, 21] of the same molecule?
The NEL was 0.5 mg/kg/day.

What about the NOAEL [1, 21] of the same molecule?
The NOAEL was ≥ 50 mg/kg/day.

What about the LEL ([1]; systemic / in life observation / mortality / mortality) of the same molecule?
The LEL was 5 mg/kg/day.

What does the source list for `CC(C)NC(=O)N1CC(=O)N(c2cc(Cl)cc(Cl)c2)C1=O` [Iprodione]?
LEL [2, 22]: 200 mg/kg/day; LOAEL [2, 22]: 200 mg/kg/day; NEL [2, 22]: 60 mg/kg/day; NOAEL [2, 22]: 60 mg/kg/day; LEL [2, 23]: 60 mg/kg/day; LOAEL [2, 23]: 60 mg/kg/day; NEL [2, 24]: 20 mg/kg/day; NOAEL [2, 24]: 20 mg/kg/day; LEL [3]: 180 mg/kg/day; LOAEL [3]: 180 mg/kg/day; NEL [3]: 60 mg/kg/day; NOAEL [3]: 60 mg/kg/day; LOAEL ([4]; systemic / pathology microscopic / testes / hypertrophy + systemic / pathology microscopic / testes / vacuolization): 115 mg/kg/day; LEL [4, 25]: 115 mg/kg/day; NEL [4, 25]: 23 mg/kg/day; NOAEL [4, 25]: 23 mg/kg/day; LEL [5, 26]: 6.1 mg/kg/day; NEL [5, 26]: < 6.1 mg/kg/day; LOAEL ([5]; systemic / pathology microscopic / liver / hypertrophy + systemic / organ weight / liver / absolute + systemic / organ weight / liver / …): 12.4 mg/kg/day; NOAEL ([5]; systemic / pathology microscopic / liver / hypertrophy + systemic / pathology microscopic / adrenal gland / rarefaction + systemic / …): 6.1 mg/kg/day; LEL [6, 27]: 158 mg/kg/day; LOAEL [6, 27]: 158 mg/kg/day; NEL [6, 27]: 54.7 mg/kg/day; NOAEL [6, 27]: 54.7 mg/kg/day; LEL [6, 28]: 54.7 mg/kg/day; LOAEL [6, 28]: 54.7 mg/kg/day; NEL [6, 29]: 16.5 mg/kg/day; NOAEL [6, 29]: 16.5 mg/kg/day; LEL [7, 30]: 24.9 mg/kg/day; LOAEL [7, 30]: 24.9 mg/kg/day; NEL [7, 31]: 4.12 mg/kg/day; NOAEL [7, 31]: 4.12 mg/kg/day; LEL [8]: 25 mg/kg/day; LOAEL [8]: > 50 mg/kg/day; NEL [8]: 7.5 mg/kg/day; NOAEL [8]: ≥ 50 mg/kg/day; LEL [9, 32]: 184 mg/kg/day; LOAEL [9, 32]: 184 mg/kg/day; NEL [9, 32]: 89 mg/kg/day; NOAEL [9, 32]: 89 mg/kg/day; LOAEL [9, 33]: 151 mg/kg/day; NOAEL [9, 33]: 78 mg/kg/day; LEL [9, 34]: 89 mg/kg/day; NEL [9, 34]: < 89 mg/kg/day

Which results are given for `O=[N+]([O-])c1ccccc1` [Nitrobenzene]?
LOAEL [10, 35]: > 40 ppm; NEL [10, 35]: 1 ppm; NOAEL [10, 35]: ≥ 40 ppm; LEL ([10]; systemic / organ weight / spleen / absolute + systemic / organ weight / spleen / relative to body weight): 10 ppm; LEL [11, 36]: 40 ppm; LOAEL [11, 36]: > 40 ppm; NEL [11, 36]: 10 ppm; NOAEL [11, 36]: ≥ 40 ppm; LEL [11, 37]: 40 ppm; LOAEL [11, 37]: > 40 ppm; NEL [11, 37]: 10 ppm; NOAEL [11, 37]: ≥ 40 ppm; NEL ([11]; group: reproductive, reproductive / reproductive performance / fertility / fertility + reproductive / reproductive performance / pregnancy / pregnancy): 10 ppm; LEL [11, 38]: 40 ppm; LOAEL [11, 38]: > 40 ppm; NOAEL [11, 38]: ≥ 40 ppm

Which results are given for `CC(C)(C)C(=O)C(Oc1ccc(Cl)cc1)n1cncn1` (stereo not given) [Triadimefon]?
LEL [12, 39]: 90 mg/kg/day; LOAEL [12, 39]: 90 mg/kg/day; NEL [12, 39]: 30 mg/kg/day; NOAEL [12, 39]: 30 mg/kg/day; LEL [12, 40]: 90 mg/kg/day; LOAEL [12, 40]: 90 mg/kg/day; NEL [12, 40]: 30 mg/kg/day; NOAEL [12, 40]: 30 mg/kg/day; LEL [13]: 10 mg/kg/day; LOAEL [13]: 10 mg/kg/day; NEL [13]: 5 mg/kg/day; NOAEL [13]: 5 mg/kg/day; LEL ([14]; systemic / hematology / leukocyte (wbc) count differential / leukocyte (wbc) + systemic / organ weight / liver / nos): 22.5 mg/kg/day; NEL ([14]; systemic / hematology / leukocyte (wbc) count differential / leukocyte (wbc) + systemic / organ weight / liver / nos + systemic / clinical …): 3.6 mg/kg/day; LOAEL [14, 41]: 114 mg/kg/day; NOAEL [14, 41]: 16.4 mg/kg/day; LEL [15]: 19.6 mg/kg/day; LOAEL [15]: 19.6 mg/kg/day; NEL [15]: < 19.6 mg/kg/day; NOAEL [15]: < 19.6 mg/kg/day; LEL [16, 42]: 50 mg/kg/day; LOAEL [16, 42]: 50 mg/kg/day; NEL [16, 43]: 20 mg/kg/day; NOAEL [16, 43]: 20 mg/kg/day; LEL [16, 23]: 120 mg/kg/day; LOAEL [16, 23]: 120 mg/kg/day; NEL [16, 23]: 50 mg/kg/day; NOAEL [16, 23]: 50 mg/kg/day; LEL [17, 44]: 90 mg/kg/day; LOAEL [17, 44]: 90 mg/kg/day; NEL [17, 44]: 2.5 mg/kg/day; NOAEL [17, 44]: 2.5 mg/kg/day; NOAEL ([17]; group: parental, systemic / organ weight / ovary / relative to body weight + systemic / in life observation / body weight / body weight + systemic / organ …): 2.5 mg/kg/day; LOAEL ([17]; group: parental, systemic / organ weight / ovary / relative to body weight + systemic / organ weight / epididymis / relative to body weight): 90 mg/kg/day; LEL [17, 45]: 2.5 mg/kg/day; NEL [17, 45]: < 2.5 mg/kg/day; LEL [17, 46]: 90 mg/kg/day; LOAEL [17, 46]: 90 mg/kg/day; NEL [17, 46]: 2.5 mg/kg/day; NOAEL [17, 46]: 2.5 mg/kg/day; NOAEL [18, 47]: 40 mg/kg/day; LOAEL ([18]; systemic / clinical chemistry / alanine aminotransferase (alt/sgpt) / alanine aminotransferase (alt/sgpt) + systemic / in life observation…): 240 mg/kg/day; LEL [18, 48]: 6.67 mg/kg/day; NEL [18, 48]: < 6.67 mg/kg/day; LOAEL ([19]; group: developmental, developmental / developmental malformation / bone / [other]): 100 mg/kg/day; NEL [19, 49]: 25 mg/kg/day; NOAEL [19, 49]: 50 mg/kg/day; LEL ([19]; group: developmental, developmental / developmental malformation / bone / full supernumerary): 50 mg/kg/day; LEL [19, 50]: 25 mg/kg/day; LOAEL [19, 50]: 25 mg/kg/day; NEL [19, 51]: 10 mg/kg/day; NOAEL [19, 51]: 10 mg/kg/day; LOAEL [20, 47]: 47 mg/kg/day; NOAEL [20, 47]: 11.4 mg/kg/day; NEL ([20]; systemic / clinical chemistry / alkaline phosphatase (alp/alk) / alkaline phosphatase (alp/alk) + systemic / clinical chemistry / …): 3.03 mg/kg/day; LEL ([20]; systemic / pathology microscopic / testes / infiltration cellular / epididymides): 11.4 mg/kg/day
